The supplement of paper PMC10307832

How the values were obtained:
Test in all cases: relative viability (nuclei count vs DMSO), 5 days (fraction); higher = more cells survive
[1] = compound: COc1cc2ncn(-c3cc(OCc4ccccc4C(F)(F)F)c(C(N)=O)s3)c2cc1OC + CC1(C)CCC(c2ccc(Cl)cc2)=C(CN2CCN(c3ccc(C(=O)NS(=O)(=O)c4ccc(N[C@H](CCN5CCOCC5)CSc5ccccc5)c(S(=O)(=O)C(F)(F)F)c4)cc3)CC2)C1 [Navitoclax] (partner 0.5 µM)
Method in brief: (§1)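 One day after seeding in 1536-well plates, lung cancer cell lines were dosed by pin tool. Dosing was either single-drug or a fixed anchor-drug dose plus five library-drug doses (not always all listed) in √10 steps. After 5 days, nuclei were stained in one fix-and-stain step and counted on 4× images, and relative viability is the nuclei count of treated wells over that of vehicle wells, given as the median of duplicate plates.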

[2] = compound: COc1cc2ncn(-c3cc(OCc4ccccc4C(F)(F)F)c(C(N)=O)s3)c2cc1OC + C[C@]1(O)C[C@@H](c2nc(-c3ccc4ccc(-c5ccccc5)nc4c3)c3c(N)nccn32)C1 [Linsitinib] (partner 1 µM)
Method in brief: as §1

[3] = compound: COc1cc2ncn(-c3cc(OCc4ccccc4C(F)(F)F)c(C(N)=O)s3)c2cc1OC + Nc1nc2[nH]cc(CCc3ccc(C(=O)N[C@@H](CCC(=O)O)C(=O)O)cc3)c2c(=O)[nH]1 [Pemetrexed] (partner 0.2 µM)
Method in brief: as §1

[4] = compound: COc1cc2ncn(-c3cc(OCc4ccccc4C(F)(F)F)c(C(N)=O)s3)c2cc1OC + O=C(CCCCCCC(=O)Nc1ccccc1)NO [Vorinostat] (partner 1 µM)
Method in brief: as §1

Cell Line | relative viability ([1]; first compound 0.05 µM) | relative viability ([1]; first compound 0.1581 µM) | relative viability ([1]; first compound 0.5 µM) | relative viability ([1]; first compound 1.581 µM) | relative viability ([1]; first compound 5 µM) | relative viability ([2]; first compound 0.05 µM) | relative viability ([2]; first compound 0.1581 µM) | relative viability ([2]; first compound 0.5 µM) | relative viability ([2]; first compound 1.581 µM) | relative viability ([2]; first compound 5 µM) | relative viability ([3]; first compound 0.05 µM) | relative viability ([3]; first compound 0.1581 µM) | relative viability ([3]; first compound 0.5 µM) | relative viability ([3]; first compound 1.581 µM) | relative viability ([3]; first compound 5 µM) | relative viability ([4]; first compound 0.05 µM) | relative viability ([4]; first compound 0.1581 µM) | relative viability ([4]; first compound 0.5 µM) | relative viability ([4]; first compound 1.581 µM) | relative viability ([4]; first compound 5 µM)
HCC-366 | 1.03 | 1.03 | 0.313 | 0.0106 | 0.0086 | 0.837 | 0.635 | 0.114 | 0.0118 | 0.0055 | 0.166 | 0.155 | 0.0748 | 0.0321 | 0.0197 | 0.347 | 0.3 | 0.0923 | 0.0208 | 0.0152
HCC-827 | 0.988 | 0.99 | 0.874 | 0.287 | 0.201 | 0.968 | 0.924 | 0.798 | 0.401 | 0.27 | 0.269 | 0.304 | 0.227 | 0.259 | 0.263 | 0.995 | 0.887 | 0.763 | 0.376 | 0.445
HOP-62 | 0.92 | 0.984 | 0.843 | 0.232 | 0.814 | 0.95 | 0.966 | 0.547 | 0.116 | 0.0914 | 0.261 | 0.302 | 0.265 | 0.123 | 0.0991 | 0.687 | 0.706 | 0.202 | 0.129 | 0.0896
IA-LM | 0.89 | 0.411 | 0.0188 | 0.0121 | 0.0246 | 0.58 | 0.606 | 0.172 | 0.0675 | 0.0619 | – | – | – | – | – | 0.916 | 0.803 | 0.241 | 0.0678 | 0.0714
LC-2-ad | 0.359 | 0.209 | 0.0767 | 0.0906 | 0.0667 | 0.722 | 0.685 | 0.119 | 0.106 | 0.0972 | 0.244 | 0.281 | 0.248 | 0.213 | 0.171 | 0.559 | 0.543 | 0.129 | 0.161 | 0.129
LCLC-97TM1 | 0.4 | 0.502 | 0.307 | 0.141 | 0.0841 | 0.203 | 0.182 | 0.122 | 0.141 | 0.115 | 0.215 | 0.217 | 0.147 | 0.11 | 0.0881 | 0.803 | 0.822 | 0.0658 | 0.0665 | 0.0652
LCLC-103H | – | – | – | – | – | 1.21 | 1.09 | 0.841 | 0.53 | 0.344 | 0.449 | 0.48 | 0.442 | 0.27 | 0.195 | 0.808 | 0.799 | 0.327 | 0.261 | 0.199
LK-2 | 0.867 | 0.732 | 0.266 | 0.117 | 0.133 | 0.591 | 0.413 | 0.284 | 0.182 | 0.165 | 0.386 | 0.268 | 0.168 | 0.115 | 0.0951 | 0.241 | 0.159 | 0.125 | 0.124 | 0.12
